Laboratory results from patent publication US12653892B2, “Composition and method for new therapeutic agents including guanidinium-presenting dendrimers and branched structures” (priority 2020, dated 2026).
≈ marks a conversion by molar mass, not a printed value. Like-named read-outs stand apart in the source and are kept apart here.

Tests used:
[1] = system: S. aureus ATCC 29213; test: MIC by broth microdilution, S. aureus ATCC 29213; type: cell-based; conditions: S. aureus (ATCC 29213); for MIC, Antibiotic +NH2-triguan-6C / MIC, Antibiotic +NO2-triamine-2C / MIC, Antibiotic +NO2-triamine-6C: non-covalent mixture; for MIC: Staphylococcus aureus, ATCC29213, 20 h, read-out: MIC, Antibiotic Alone
Method: Methods—Determination of MICs: MICs for S. aureus, E. faecium, E. coli, P aeruginosa, A. baumannii, K. pneumoniae were determined using broth microdilution in accordance with CLSI methods (Wiegand, I.; Hilpert, K.; Hancock, R. E. W. Agar and Broth Dilution Methods to Determine the Minimal Inhibitory Concentration (MIC) of Antimicrobial Substances. Nat. Protoc. 2008, 3, 163-175). One day prior to each MIC experiment, bacterial strains were streaked for single colonies on TSA plates from frozen glycerol stocks stored at −80° C. Three to five colonies from each plate were harvested with a disposable inoculating loop and resuspended in 500 μL of PBS to create a bacterial suspension. Alternatively, a single colony of the appropriate bacterial strain was added to 4 mL TSB for overnight growth at 37° C. with 200 rpm shaking to create a stationary phase bacterial suspension. The suspension was diluted in PBS to an OD600 of 0.1 (˜[…] CFU/ml), and the OD 0.1 suspension was diluted 1:100 in Mueller Hinton broth (MHB, Difco 257530) just prior to inoculating the 96-well polypropylene treatment plate (Costar 3879). A 50 μL portion of inoculum was added to a treatment plate containing 2-fold serial dilutions of compound in MHB (50 μL of treatment/well) to lend a final total volume of 100 μL/well and a final inoculum density of ˜5×10^5 CFU/ml. The completed assay plate was sealed with Parafilm, placed in a lidded plastic tray lined with moistened paper towels, and incubated at 37° C. for approximately 20 hours. The MIC was read as the lowest treatment concentration where no bacterial growth occurred, as determined by OD600 measurements on a microplate reader. If a different plate or media type was used for a particular test, this is noted below the respective table.

[2] = system: S. aureus ATCC 29213; conditions: cited from earlier work
[3] = cation-adjusted MHB2, polystyrene microwell plate (Costar 3370)
[4] = cation-adjusted MHB2 supplemented
[5] = cation-adjusted MHB2 supplemented with 50 g/L Ca2+
[6] = Mueller Hinton Broth, polypropylene plate

| MIC, Antibiotic +NH2-triguan-6C [1, 4] [µM] | MIC, Antibiotic +NO2-triamine-2C [1, 5] [µM] | MIC, Antibiotic +NO2-triamine-6C [1, 5] [µM] | MIC [1, 4] [µM] | MIC, Antibiotic +NH2-triguan-6C [1, 6] [µM] | MIC, Antibiotic +NO2-triamine-2C [1, 6] [µM] | MIC, Antibiotic +NO2-triamine-6C [1, 6] [µM] | MIC [1, 6] [µM] | SMILES | MIC, Antibiotic +NH2-triguan-6C [1, 3] [µM] | MIC, Antibiotic +NO2-triamine-2C [1, 3] [µM] | MIC, Antibiotic +NO2-triamine-6C [1, 3] [µM] | MIC [1, 3] [µM] | Literature MIC [2] [µM] |
| --- | --- | --- | --- | --- | --- | --- | --- | --- | --- | --- | --- | --- | --- |
|  |  |  |  |  |  |  |  | CN(C)[C@@H]1C(O)=C(C(N)=O)C(=O)[C@@]2(O)C(O)=C3C(=O)c4c(O)cccc4[C@@](C)(O)[C@H]3C[C@@H]12 [Tetracycline] | 2 (≈ 0.889 µg/mL) | 2 (≈ 0.889 µg/mL) | 2 (≈ 0.889 µg/mL) | 2 (≈ 0.889 µg/mL) |  |
| 0.5 (≈ 0.81 µg/mL) | 0.5 (≈ 0.81 µg/mL) | 0.5 (≈ 0.81 µg/mL) | 0.5 (≈ 0.81 µg/mL) |  |  |  |  | CCCCCCCCCC(=O)N[C@@H](Cc1c[nH]c2ccccc12)C(=O)N[C@H](CC(N)=O)C(=O)N[C@@H](CC(=O)O)C(=O)N[C@@H]1C(=O)NCC(=O)N[C@@H](CCCN)C(=O)N[C@@H](CC(=O)O)C(=O)N[C@H](C)C(=O)N[C@@H](CC(=O)O)C(=O)NCC(=O)N[C@H](CO)C(=O)N[C@@H]([C@H](C)CC(=O)O)C(=O)N[C@@H](CC(=O)c2ccccc2N)C(=O)O[C@@H]1C [Daptomycin] |  |  |  |  | 0.077 to 0.62 |
|  |  |  |  | 0.125 (≈ 0.0479 µg/mL) | 0.125 (≈ 0.0479 µg/mL) | 0.125 (≈ 0.0479 µg/mL) | 0.125 (≈ 0.0479 µg/mL) | C[C@@H](O)[C@H]1C(=O)N2C(C(=O)O)=C(S[C@@H]3CN[C@H](C(=O)N(C)C)C3)[C@H](C)[C@H]12 [Meropenem] |  |  |  |  | 0.08 to 0.65 |
